Test [1] concerns the target PI3K p110α (Mus musculus, UniProt P42337). Briefly: Cellular p110α signaling: PDGF-stimulated MEFs, pAkt Western blot. In kind it is cell-based, murine. To be noted: cellular assay, MEFs, PDGF; read-out: EC50 p110α. (In general: A western blot detects proteins with antibodies after separation by electrophoresis.)
Procedure: (§2) To analyze PI3K p110α and p110β signaling, murine embryo fibroblast (MEFs) were removed from FBS and starved for 2 hours followed by stimulation with 10 ng/mL of PDGF (Cell Signaling Technologies, Danvers, Mass.) or 10 μM of LPA (Echelon, Salt Lake City, Utah) for 10 minutes at 37° C., respectively. After washing once in cold phosphate-buffered saline (PBS), the cell pellet was resuspended in 1× cell lysis buffer (Cell Signaling Technologies) supplemented with mini protease inhibitor mix (Roche, Indianapolis, Ind.), phosphate inhibitor cocktail set I and II (Calbiochem, San Diego, Calif.) for 15 minutes on ice. Whole-cell lysates were obtained by centrifugation at 16,000 g for 10 minutes at 4° C., and the soluble protein was analyzed by Western blotting for Akt and pAkt levels. To analyze PI3K p110δ and p110γ signaling, basophil activation was measured in isolated PBMC or whole blood using the Flow2 CAST kit according to the manufacture's standardized methods (Buhlman Laboratories AG, Switzerland). Briefly, p110δ was activated with anti-FCεRI and p110γ was activated with fMLP (2 μM) in the absence or presence of compounds. To monitor the basophil cell population and cellular activation, anti-CD63-FITC and anti-CCR3-PE antibodies were added to each sample. Cells were fixed and analyzed on a FC500 MPL flow cytometer (Beckman Coulter, Brea, Calif.).
Test [2] deals with T1, PI3K p110β (Mus musculus, UniProt Q8BTI9).
T1 construct: endogenous in cells; host or cells: murine embryo fibroblasts (MEFs)
Briefly: Cellular p110β signaling: LPA-stimulated MEFs, pAkt Western blot. The test is classed as cell-based, murine. Particulars: cellular assay, read-out: EC50 p110β.
Procedure: as §2

The subject of test [3] is Solid tumor. Briefly: Cellular viability, solid tumor. The test is classed as cell-based. Particulars: N = 14. As for the experimental part:
For primary T-ALL samples, cell viability was determined using the BD Cell Viability kit (BD Biosciences) and fluorescent counting beads as previously described in Armstrong, F. et al., NOTCH is a key regulator of human T-cell acute leukemia initiating cell activity, Blood 113, 1730-1740 (2009). Cells were plated with MS5-DL1 stroma cells. After 72 hours following treatment, cells were harvested and stained with an APC-conjugated anti-human CD45 according to the manufacturer's instructions. For solid tumor cell lines, cellular viability was determined using the AlamarBlue kit (Invitrogen). About 10,000 cells in 100 μL of media containing 10% FBS were aliquoted into individual wells of a 96-well plate and treated with vehicle (DMSO) or compound in triplicate for 24 hours. Ten μL of AlamarBlue reagent was added to each well and incubated for 4 hours at 37° C. with 5% CO2. Fluorescence was measured with an excitation wavelength at 530 to 560 nm and emission wavelength at 590 nm using Spectramax M5 plate reader (Molecular Devices, Sunnyvale, Calif.).
(§1) Cellular viability and pAkt activity were used to determine effects of Compounds A, C, and D in solid tumor, B-cell malignancies, and T-cell malignancies.

Test [4] concerns B Cell Malignancies. The experiment in a line: Cellular viability, B cell malignancies. Particulars: N = 7. In kind it is cell-based.
Source text: as §1

The test system of test [5] is pAkt in B Cell Malignancies. The experiment in a line: pAkt activity, B cell malignancies. The test is classed as cell-based. Particulars: N = 7.
Source text: as §1

The subject of test [6] is T Cell Malignancies. Briefly: Cellular viability, T cell malignancies. In kind it is cell-based. To be noted: N = 7.
Source text: as §1

Test [7] addresses T2, PI3K p110β (Homo sapiens, UniProt P42338).
T2 construct: purchased Invitrogen Ltd. (SelectScreen service)
Briefly: SelectScreen in vitro kinase inhibitor assay, p110β. The test is classed as biochemical.

The target in test [8] is T3, PI3K p110γ (Homo sapiens, UniProt P48736). Briefly: SelectScreen in vitro kinase inhibitor assay, p110γ. Particulars: ATP at Km. The test is classed as biochemical.
Test [9] concerns the target T4, PI3K p110δ (Homo sapiens, UniProt O00329).
T4 construct: endogenous in cells; host or cells: basophils in isolated PBMC or whole blood
The experiment in a line: SelectScreen in vitro kinase inhibitor assay, p110δ. The test is classed as biochemical.

Test [10] concerns the target T4, PI3K p110δ. The experiment in a line: Cellular p110δ signaling: basophil activation with anti-FCεRI (Flow2 CAST). In kind it is cell-based. To be noted: cellular assay.
Procedure: as §2
The target in test [11] is T5, PI3Kβ (p110 β) (Homo sapiens, UniProt P42338).
T5 construct: made in house
Briefly: TR-FRET enzymatic assay, PI3Kβ. In kind it is biochemical.
Procedure: (§3) Enzymatic activity of the class I PI3K isoforms was measured using a time resolved fluorescence resonance energy transfer assay (TR-FRET) that monitors formation of the product 3,4,5-inositol triphosphate molecule (PIP3), as it competes with fluorescently labeled PIP3 for binding to the GRP-1 pleckstrin homology domain protein. An increase in phosphatidylinositide 3-phosphate product results in a decrease in TR-FRET signal as the labeled fluorophore is displaced from the GRP-1 protein binding site. Class I PI3K isoforms were expressed and purified as heterodimeric recombinant proteins. All assay reagents and buffers for the TR-FRET assay were purchased from Millipore. […] After an assay reaction time of 30 minutes at 25° C., reactions were terminated with a final concentration of 10 mM EDTA, 10 nM labeled-PIP3, and 35 nM Europium labeled GRP-1 detector protein before reading TR-FRET on an Envision plate reader. IC50 values were calculated from the fit of the dose-response curves to a four-parameter equation. All IC50 values represent geometric mean values of a minimum of four determinations. These assays generally produced results within 3-fold of the reported mean.

Test [12] deals with T6, PI3Kδ (p110δ) (Homo sapiens, UniProt O00329).
T6 construct: made in house
The experiment in a line: TR-FRET enzymatic assay, PI3Kδ. The test is classed as biochemical. (In general: TR-FRET usually uses a lanthanide donor and a delayed reading to cut background.)
Procedure: as §3

Test [13] addresses T7, PI3Kγ (p110γ) (Homo sapiens, UniProt P48736).
T7 construct: made in house
Briefly: TR-FRET enzymatic assay, PI3Kγ. The test is classed as biochemical. Particulars: 2×Km ATP, geometric mean of at least four determinations.
Procedure: as §3

In test [14] the test system is pAkt in solid tumor. Briefly: pAkt activity, solid tumor. The test is classed as cell-based. Particulars: N = 14.
Source text: as §1

The test system of test [15] is pAkt in T Cell Malignancies. Briefly: pAkt activity, T cell malignancies. The test is classed as cell-based. Particulars: N = 7.
Source text: as §1

The target of test [16] is PI3K p110α (Homo sapiens, UniProt P42336). The experiment in a line: biochemical.
Test [17] deals with PI3Kα (p110α) (Homo sapiens, UniProt P42336). The experiment in a line: biochemical.
Procedure: Enzymatic activity of the class I PI3K isoforms was measured using a time resolved fluorescence resonance energy transfer assay (TR-FRET) that monitors formation of the product 3,4,5-inositol triphosphate molecule (PIP3), as it competes with fluorescently labeled PIP3 for binding to the GRP-1 pleckstrin homology domain protein. An increase in phosphatidylinositide 3-phosphate product results in a decrease in TR-FRET signal as the labeled fluorophore is displaced from the GRP-1 protein binding site. Class I PI3K isoforms were expressed and purified as heterodimeric recombinant proteins. All assay reagents and buffers for the TR-FRET assay were purchased from Millipore. […] IC50 values were calculated from the fit of the dose-response curves to a four-parameter equation. All IC50 values represent geometric mean values of a minimum of four determinations. These assays generally produced results within 3-fold of the reported mean.
In test [18] the target is T3, PI3K p110γ. The experiment in a line: Cellular p110γ signaling: basophil activation with fMLP (Flow2 CAST). In kind it is cell-based. Also noted: endogenous in cells; host or cells: basophils in isolated PBMC or whole blood. To be noted: cellular assay.
Procedure: as §2

For orientation: EC50 means the concentration giving half of the maximal effect. For orientation: IC50 means the concentration that inhibits the measured activity by half. Read a low IC50 as inhibition by little substance.

T1 sequence (Q8BTI9 whole entry): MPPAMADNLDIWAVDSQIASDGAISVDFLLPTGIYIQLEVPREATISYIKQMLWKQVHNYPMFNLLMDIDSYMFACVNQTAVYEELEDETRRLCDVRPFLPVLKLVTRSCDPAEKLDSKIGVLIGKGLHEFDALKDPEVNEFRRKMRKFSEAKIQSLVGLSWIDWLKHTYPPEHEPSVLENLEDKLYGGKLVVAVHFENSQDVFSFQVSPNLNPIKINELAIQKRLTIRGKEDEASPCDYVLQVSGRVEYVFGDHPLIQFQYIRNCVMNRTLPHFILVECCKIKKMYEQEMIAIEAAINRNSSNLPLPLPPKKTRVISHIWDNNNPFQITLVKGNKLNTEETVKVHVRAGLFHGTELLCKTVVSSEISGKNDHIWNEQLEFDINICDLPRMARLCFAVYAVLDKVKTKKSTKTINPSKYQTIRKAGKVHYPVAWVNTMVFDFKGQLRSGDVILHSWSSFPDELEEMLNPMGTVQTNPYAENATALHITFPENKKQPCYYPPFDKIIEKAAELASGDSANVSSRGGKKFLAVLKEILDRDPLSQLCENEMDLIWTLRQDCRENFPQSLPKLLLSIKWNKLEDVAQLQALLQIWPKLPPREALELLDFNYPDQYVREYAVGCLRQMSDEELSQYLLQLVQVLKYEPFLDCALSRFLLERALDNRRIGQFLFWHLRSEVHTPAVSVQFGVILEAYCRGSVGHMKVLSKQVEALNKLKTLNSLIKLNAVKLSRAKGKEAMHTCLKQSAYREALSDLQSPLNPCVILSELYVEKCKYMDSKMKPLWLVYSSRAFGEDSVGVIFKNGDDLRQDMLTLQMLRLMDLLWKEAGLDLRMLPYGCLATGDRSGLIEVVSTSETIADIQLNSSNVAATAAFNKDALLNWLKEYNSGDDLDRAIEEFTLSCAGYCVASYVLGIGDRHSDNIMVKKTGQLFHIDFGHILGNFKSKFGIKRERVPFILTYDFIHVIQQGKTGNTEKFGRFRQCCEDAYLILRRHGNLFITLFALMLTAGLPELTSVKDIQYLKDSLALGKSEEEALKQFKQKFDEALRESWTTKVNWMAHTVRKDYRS
T1 sequence (P26450 whole entry partner): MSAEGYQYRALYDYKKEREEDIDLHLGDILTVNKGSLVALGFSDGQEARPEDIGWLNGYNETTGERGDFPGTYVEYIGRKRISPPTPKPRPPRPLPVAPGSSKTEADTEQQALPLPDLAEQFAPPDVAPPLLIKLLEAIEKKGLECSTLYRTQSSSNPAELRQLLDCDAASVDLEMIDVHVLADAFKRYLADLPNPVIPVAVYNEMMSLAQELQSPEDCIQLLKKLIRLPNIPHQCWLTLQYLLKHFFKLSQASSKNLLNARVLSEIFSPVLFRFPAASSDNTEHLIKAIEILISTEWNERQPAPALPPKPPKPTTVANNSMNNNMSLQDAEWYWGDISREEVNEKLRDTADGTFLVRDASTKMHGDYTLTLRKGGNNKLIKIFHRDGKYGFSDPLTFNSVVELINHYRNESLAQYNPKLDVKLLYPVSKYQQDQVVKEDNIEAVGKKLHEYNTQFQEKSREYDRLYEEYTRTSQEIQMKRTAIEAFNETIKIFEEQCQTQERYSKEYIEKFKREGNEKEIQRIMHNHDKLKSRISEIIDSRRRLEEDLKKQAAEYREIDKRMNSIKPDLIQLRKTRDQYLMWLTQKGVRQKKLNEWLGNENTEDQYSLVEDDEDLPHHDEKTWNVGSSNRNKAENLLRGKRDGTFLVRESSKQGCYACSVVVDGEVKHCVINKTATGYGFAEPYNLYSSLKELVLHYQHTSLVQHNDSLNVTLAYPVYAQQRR
T3 sequence (P48736 whole entry): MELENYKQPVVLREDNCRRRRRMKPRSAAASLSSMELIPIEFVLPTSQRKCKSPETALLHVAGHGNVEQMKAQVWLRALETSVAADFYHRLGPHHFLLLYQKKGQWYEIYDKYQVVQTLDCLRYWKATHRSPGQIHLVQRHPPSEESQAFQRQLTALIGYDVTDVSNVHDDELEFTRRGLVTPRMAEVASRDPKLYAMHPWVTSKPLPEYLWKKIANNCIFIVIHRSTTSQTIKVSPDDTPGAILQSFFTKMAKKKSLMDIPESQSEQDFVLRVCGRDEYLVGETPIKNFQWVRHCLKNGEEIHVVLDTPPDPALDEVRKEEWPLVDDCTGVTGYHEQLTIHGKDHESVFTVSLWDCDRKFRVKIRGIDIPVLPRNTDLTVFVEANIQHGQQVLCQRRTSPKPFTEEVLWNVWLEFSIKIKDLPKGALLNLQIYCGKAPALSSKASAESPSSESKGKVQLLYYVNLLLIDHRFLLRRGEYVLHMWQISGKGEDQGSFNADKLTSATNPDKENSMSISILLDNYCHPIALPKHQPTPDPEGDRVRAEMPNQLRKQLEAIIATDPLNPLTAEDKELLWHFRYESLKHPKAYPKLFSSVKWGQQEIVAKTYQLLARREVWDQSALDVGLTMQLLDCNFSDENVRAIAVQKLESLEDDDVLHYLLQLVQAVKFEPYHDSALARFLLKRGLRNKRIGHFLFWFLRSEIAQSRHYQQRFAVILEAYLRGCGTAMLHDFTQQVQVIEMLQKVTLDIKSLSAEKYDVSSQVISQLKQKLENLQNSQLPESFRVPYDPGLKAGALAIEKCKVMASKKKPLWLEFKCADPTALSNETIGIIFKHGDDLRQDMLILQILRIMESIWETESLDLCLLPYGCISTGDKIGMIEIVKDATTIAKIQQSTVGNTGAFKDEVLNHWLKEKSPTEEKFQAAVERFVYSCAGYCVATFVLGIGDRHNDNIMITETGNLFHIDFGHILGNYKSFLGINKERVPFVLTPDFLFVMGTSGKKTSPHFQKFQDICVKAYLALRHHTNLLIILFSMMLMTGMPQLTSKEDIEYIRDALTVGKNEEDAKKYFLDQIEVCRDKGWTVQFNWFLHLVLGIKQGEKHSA
T4 sequence (O00329 whole entry): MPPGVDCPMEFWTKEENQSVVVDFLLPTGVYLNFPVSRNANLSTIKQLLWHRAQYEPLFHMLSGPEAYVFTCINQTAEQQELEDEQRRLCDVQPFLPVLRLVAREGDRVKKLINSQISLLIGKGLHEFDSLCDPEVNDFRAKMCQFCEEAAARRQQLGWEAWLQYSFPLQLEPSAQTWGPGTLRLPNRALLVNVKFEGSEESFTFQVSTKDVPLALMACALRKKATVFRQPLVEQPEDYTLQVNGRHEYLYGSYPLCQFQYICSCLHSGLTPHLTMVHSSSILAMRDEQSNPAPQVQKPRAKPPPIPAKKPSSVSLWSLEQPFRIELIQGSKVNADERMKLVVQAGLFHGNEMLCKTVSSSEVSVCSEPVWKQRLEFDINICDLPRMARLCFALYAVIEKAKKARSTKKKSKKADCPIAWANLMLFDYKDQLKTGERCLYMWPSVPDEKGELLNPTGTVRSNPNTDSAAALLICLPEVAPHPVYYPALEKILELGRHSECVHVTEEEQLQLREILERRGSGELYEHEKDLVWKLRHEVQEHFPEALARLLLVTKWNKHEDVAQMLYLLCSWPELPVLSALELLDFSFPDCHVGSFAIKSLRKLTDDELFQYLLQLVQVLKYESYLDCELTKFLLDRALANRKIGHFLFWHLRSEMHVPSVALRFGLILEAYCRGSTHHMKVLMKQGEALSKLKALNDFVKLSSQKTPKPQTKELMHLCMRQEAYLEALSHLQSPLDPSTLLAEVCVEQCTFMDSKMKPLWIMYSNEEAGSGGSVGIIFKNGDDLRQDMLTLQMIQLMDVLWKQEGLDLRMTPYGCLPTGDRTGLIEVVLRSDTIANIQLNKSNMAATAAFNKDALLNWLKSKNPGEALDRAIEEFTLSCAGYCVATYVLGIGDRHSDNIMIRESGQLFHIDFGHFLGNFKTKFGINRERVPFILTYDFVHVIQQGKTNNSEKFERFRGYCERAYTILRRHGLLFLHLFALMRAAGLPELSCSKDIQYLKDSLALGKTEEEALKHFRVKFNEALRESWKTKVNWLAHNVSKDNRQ
T4 sequence (P27986 whole entry partner): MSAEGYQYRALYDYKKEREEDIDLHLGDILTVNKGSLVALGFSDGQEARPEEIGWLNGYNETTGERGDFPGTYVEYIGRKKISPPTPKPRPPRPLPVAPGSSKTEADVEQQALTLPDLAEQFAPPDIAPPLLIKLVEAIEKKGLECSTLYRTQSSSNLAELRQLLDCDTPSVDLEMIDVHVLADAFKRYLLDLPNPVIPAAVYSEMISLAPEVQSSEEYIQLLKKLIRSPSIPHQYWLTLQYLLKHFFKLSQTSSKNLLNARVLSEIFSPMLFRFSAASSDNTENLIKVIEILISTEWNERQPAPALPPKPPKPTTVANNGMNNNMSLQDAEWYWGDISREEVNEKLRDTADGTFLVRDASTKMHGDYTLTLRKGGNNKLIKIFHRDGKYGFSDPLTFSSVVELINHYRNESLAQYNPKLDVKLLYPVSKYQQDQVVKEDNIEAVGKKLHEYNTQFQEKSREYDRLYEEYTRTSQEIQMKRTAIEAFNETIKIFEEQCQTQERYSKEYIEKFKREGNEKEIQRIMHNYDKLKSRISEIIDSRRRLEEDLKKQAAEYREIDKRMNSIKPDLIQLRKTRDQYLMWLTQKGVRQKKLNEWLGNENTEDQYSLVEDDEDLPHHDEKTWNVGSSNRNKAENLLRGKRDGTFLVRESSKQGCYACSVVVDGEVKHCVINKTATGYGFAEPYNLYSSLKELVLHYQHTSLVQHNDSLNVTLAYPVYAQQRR
T7 sequence (P48736 whole entry, species assumed): as the sequence (P48736 whole entry) above
T6 sequence (O00329 whole entry): as the sequence (O00329 whole entry) above
T6 sequence (P27986 whole entry partner): as the sequence (P27986 whole entry partner) above

Consider `CC[C@H](Nc1ncnc2[nH]cnc12)c1nc2cccc(F)c2c(=O)n1-c1ccccc1` [Compound C], for which the EC50 is > 20000 nM in test [1]; 1900 nM in test [2]; 11400 nM in [3]; 662 nM in [4]; 367 nM in test [5]; > 25000 nM in test [6].

`C[C@H](Nc1ncnc2[nH]cnc12)c1nc2ccc(F)cc2c(=O)n1-c1ccccc1` [Compound D]: the IC50 in [7] turned out to be 153 nM; in test [8] it was 25 nM; in test [9], 0.9 nM; in test [11], 3400 nM; in test [12], 9.3 nM; in test [13] it was 1000 nM. In addition, the IC50 is 303 nM in test [16] and 7800 nM in test [17]. The EC50 in [1] was > 20000 nM; in test [2], 1200 nM; in test [10] it was 4.9 nM; in test [3] it was 4750 nM; in [14] it was 987 nM; in test [4], 540 nM. For the same molecule, the EC50 was found to be 350 nM in test [5], 7700 nM in test [6], 988 nM in test [15] and 2350 nM in [18].
